4 compounds from patent US6017934A, “Thrombin inhibitors” (Merck & Co., Inc., priority 1998, dated 2000) can be followed below.

Residues, ends and D or L forms follow the SMILES beside them. Where only a bound is given, the exact number is not on record here.

Type in all cases: biochemical
The target of experiment [1] is T1, human a-thrombin (Homo sapiens, UniProt P00734). Description: In vitro thrombin inhibition (Ki). The settings on record: 25° C., 0.05 M TRIS pH 7.4, 0.15 M NaCl, 0.1% PEG; read-out: trombin Ki. The procedure: (§1) Assays of human a-thrombin and human trypsin were performed at 25° C. in 0.05 M TRIS buffer pH 7.4, 0.15 M NaCl, 0.1% PEG. Trypsin assays also contained 1 mM CaCl2.
(§2) Concentrations of stock solutions of Z-GPR-afc were determined from measurements of absorbance at 380 nm of the 7-amino-4-trifluoromethyl coumarin produced upon complete hydrolysis of an aliquot of the stock solution by thrombin.
Times required to achieve equilibration between enzyme and inhibitor were determined in control experiments. Initial velocities of product formation in the absence (Vo) or presence of inhibitor (Vi) were measured. Assuming competitive inhibition, and that unity is negligible compared Km /[S], […] (where [S], [I], and e respectively represent the total concentrations, of substrate, inhibitor and enzyme), the equilibrium constant (Ki) for dissociation of the inhibitor from the enzyme can be obtained from the dependence of Vo /Vi on [I] shown in equation 1.

For experiment [2], the target named is T1, human a-thrombin. Description: Thrombin catalyzed hydrolysis of fluorogenic substrate. As to conditions: 500 nm (excitation 400 nm). The procedure: as §1, §2
The test system of another experiment is human trypsin. The experiment is described as follows: Rate of hydrolysis of p-nitroanilide substrate by trypsin. The settings on record: 405 nm, 1 mM CaCl2. The procedure:
as §1

For the compound `Cc1cc(Sc2ccccc2)c(N)c(=O)n1CC(=O)NCc1cc(Cl)ccc1OCC(=O)NC1CC1`, the Ki (as a rule, the dissociation constant of the complex between target and ligand, obtained from inhibition or displacement) at human a-thrombin [1] was below 10 nM. The same measure, in the same setting: the result for `Cc1nc(N)ccc1CNC(=O)Cn1c(C)cc(Sc2ccccc2)c(NS(C)(=O)=O)c1=O` reads above 10 nM.

Consider `N=C(N)NCCC[C@H](NC(=O)[C@@H]1CCCN1C(=O)CNC(=O)OCc1ccccc1)C(=O)Nc1ccc2c(C(F)(F)F)cc(=O)oc2c1` [Z-GPR-afc, Cbz-Gly-Pro-Arg-7-amino-4-trifluoromethylcoumarin] (HELM PEPTIDE1{[O=C(OCc1ccccc1)[*:2]].G.P.R.[O=c1cc(C(F)(F)F)c2ccc(N[*:1])cc2o1]}$$$$V2.0), for which the Km (usually the concentration of substrate that gives half-maximal velocity) at human a-thrombin [2] came out at 27 µM.

For the compound `CNCC(=O)N1CCC[C@H]1C(=O)N[C@@H](CCCNC(=N)N)C(=O)Nc1ccc([N+](=O)[O-])cc1` [sar-PR-pna, sarcosine-Pro-Arg-p-nitroanilide] (HELM PEPTIDE1{[Sar].P.R.[O=[N+]([O-])c1ccc(N[*:1])cc1]}$$$$V2.0), the Km in the experiment with human trypsin turned out to be 59 µM.
